According to patent publication US20020137929A1, “1 - (3-heterocyclylphenyl) isothiourea, -isourea, -guanidine and -amidine herbicidal agents” (Intellectual Property Department, BASF Aktiengesellschaft, priority 1998, published 2002):

Experiments:
[1] = tested on: ZEAMX (Corn, Field); experiment: Postemergence herbicidal evaluation; type: in vivo, Zea mays; details: for ZEAMX herbicidal rating: postemergence
Outline: (§1)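 Rate range approx. 0.0156–0.500 kg/ha. Foliar application at 40 psi to ~2-week seedlings; surfactant 0.5% TWEEN 20 in 50/50 acetone/water. Evaluation 4–5 wk post-treatment by 0–9 visual injury score, means of replicate tests.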

[2] = tested on: AMBEL (Ragweed, Common); experiment: Preemergence herbicidal evaluation; type: in vivo, Ambrosia artemisifolia; details: rated 4-5 weeks after treatment
Outline: (§2)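 Seeds were mixed with potting soil and planted on about one inch of soil, then sprayed with test compound in aqueous acetone at about 0.0156 to 0.500 kg per hectare. Plants grew under standard greenhouse care and were visually rated 0-9 against untreated controls 4-5 weeks post-treatment.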

[3] = tested on: ORYSAT (Rice, Tebonnet); experiment: Postemergence herbicidal evaluation; type: in vivo, Oryza sativa, (L.) Tebonnet; details: for ORYSAT herbicidal rating: postemergence
Outline: as §1

[4] = tested on: SETVI (Foxtail, Green); experiment: Preemergence herbicidal evaluation; type: in vivo, Setaria viridis; details: rated 4-5 weeks after treatment
Outline: as §2

[5] = tested on: SAGPY (Arrowhead (Pygmaea)); experiment: Postemergence weed control under flooded paddy conditions; type: in vivo, Sagittaria pygmaea; details: postemergence weeds
Outline: (§3)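 Containers holding 3–5 cm weeds and rice at 1.5–2.5 leaves are flooded to 1.5–3 cm above soil. Compound in 50/50 v/v aqueous/acetone is then added directly to the water, about 0.0313–0.500 kg/ha. Plants are kept in the greenhouse and rated 0–9 visually at 3–4 weeks.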

[6] = tested on: TRZAWR (Wheat, Winter, cv Riband); experiment: Postemergence herbicidal evaluation; type: in vivo, Triticum aestivum; details: for TRZAWR herbicidal rating: postemergence
Outline: as §1

[7] = tested on: ECHORC (Watergrass (Calif.)); experiment: Postemergence weed control under flooded paddy conditions; type: in vivo, Echinochloa oryzoides; details: postemergence weeds
Outline: as §3

[8] = tested on: GLXMAW (Soybean, Williams); experiment: Postemergence herbicidal evaluation; type: in vivo, Glycine max, (L.) Merr. cv Williams; details: for GLXMAW herbicidal rating: postemergence
Outline: as §1

[9] = tested on: CYPSE (Flatsedge); experiment: Postemergence weed control under flooded paddy conditions; type: in vivo, Cyperus serotinus; details: postemergence weeds
Outline: as §3

[10] = tested on: CHEAL (Lambsquarters, Common); experiment: Postemergence herbicidal evaluation; type: in vivo, Chenopodium album; details: for CHEAL herbicidal rating: postemergence
Outline: as §1

[11] = tested on: GALAP (Galium); experiment: Preemergence herbicidal evaluation; type: in vivo, Galium aparine; details: rated 4-5 weeks after treatment
Outline: as §2

[12] = tested on: ABUTH (Velvetleaf); experiment: Postemergence herbicidal evaluation; type: in vivo, Abutilon theophrasti; details: for ABUTH herbicidal rating: postemergence
Outline: as §1

[13] = tested on: SETVI (Foxtail, Green); experiment: Postemergence herbicidal evaluation; type: in vivo, Setaria viridis; details: for SETVI herbicidal rating: postemergence
Outline: as §1

[14] = tested on: CYPIR (Rice Flatsedge); experiment: Preemergence weed control under flooded paddy conditions; type: in vivo, Cyperus iria; details: rated 3-4 weeks after treatment
Outline: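 Silt loam, seeds in top 0.5 cm; flood held 1.5-3 cm; test cpd as acetone/water 50/50 into flood water, ~0.0313-0.500 kg/ha a.i.; greenhouse 3-4 wk; visual 0-9 score vs control.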

[15] = Rate 0.0313 kg/ha, rated 3 to 4 weeks after treatment
[16] = Rate 0.0625 kg/ha, rated 3 to 4 weeks after treatment
[17] = Rate 0.1250 kg/ha, rated 3 to 4 weeks after treatment
[18] = Rate 0.2500 kg/ha, rated 3 to 4 weeks after treatment
[19] = rate 0.0313 kg/ha, 3-4 weeks after treatment
[20] = rate 0.0625 kg/ha, 3-4 weeks after treatment
[21] = rate 0.1250 kg/ha, 3-4 weeks after treatment
[22] = rate 0.2500 kg/ha, 3-4 weeks after treatment

SMILES: COC(=O)[C@H](Cc1ccc([N+](=O)[O-])cc1)N1C(=O)CSC1=Nc1cc(-n2c(=O)cc(C(F)(F)F)n(C)c2=O)c(F)cc1Cl [Compound 78, Methyl 2-{{2-chloro-5-[3,6-dihydro-3-methyl-2,6-dioxo-4-(trifluoromethyl)-1(2H)-pyrimidinyl]-4-fluorophenyl}imino}-4-oxo-α-(p-nitrobenzyl)-3-thiazolidineacetate, L-]
- ZEAMX herbicidal rating ([1]; rate 0.0158 kg/ha): 4.5
- ZEAMX herbicidal rating ([1]; rate 0.0315 kg/ha): 5.0
- ZEAMX herbicidal rating ([1]; rate 0.0630 kg/ha): 5.0
- Preemergence herbicidal rating AMBEL ([2]; rate 0.0156 kg/ha): 0.0
- Preemergence herbicidal rating AMBEL ([2]; rate 0.0313 kg/ha): 0.0
- Preemergence herbicidal rating AMBEL ([2]; rate 0.0625 kg/ha): 0.0
- Preemergence herbicidal rating AMBEL ([2]; rate 0.1250 kg/ha): 1.0
- Preemergence herbicidal rating AMBEL ([2]; rate 0.2500 kg/ha): 1.0
- ORYSAT herbicidal rating ([3]; rate 0.0158 kg/ha): 3.0
- ORYSAT herbicidal rating ([3]; rate 0.0315 kg/ha): 3.5
- ORYSAT herbicidal rating ([3]; rate 0.0630 kg/ha): 4.0
- Preemergence herbicidal rating SETVI ([4]; rate 0.0156 kg/ha): 0.0
- Preemergence herbicidal rating SETVI ([4]; rate 0.0313 kg/ha): 0.0
- Preemergence herbicidal rating SETVI ([4]; rate 0.0625 kg/ha): 0.0
- Preemergence herbicidal rating SETVI ([4]; rate 0.1250 kg/ha): 0.0
- Preemergence herbicidal rating SETVI ([4]; rate 0.2500 kg/ha): 6.0
- Herbicidal rating SAGPY [5, 15]: 0.0
- Herbicidal rating SAGPY [5, 16]: 0.0
- Herbicidal rating SAGPY [5, 17]: 2.0
- Herbicidal rating SAGPY [5, 18]: 4.0
- TRZAWR herbicidal rating ([6]; rate 0.0158 kg/ha): 3.0
- TRZAWR herbicidal rating ([6]; rate 0.0315 kg/ha): 3.5
- TRZAWR herbicidal rating ([6]; rate 0.0630 kg/ha): 3.5
- Herbicidal rating ECHORC [7, 15]: 7.0
- Herbicidal rating ECHORC [7, 16]: 7.0
- Herbicidal rating ECHORC [7, 17]: 9.0
- Herbicidal rating ECHORC [7, 18]: 9.0
- GLXMAW herbicidal rating ([8]; rate 0.0158 kg/ha): 4.0
- GLXMAW herbicidal rating ([8]; rate 0.0315 kg/ha): 4.5
- GLXMAW herbicidal rating ([8]; rate 0.0630 kg/ha): 5.5
- Herbicidal rating CYPSE [9, 15]: 6.0
- Herbicidal rating CYPSE [9, 16]: 6.0
- Herbicidal rating CYPSE [9, 17]: 7.0
- Herbicidal rating CYPSE [9, 18]: 9.0
- CHEAL herbicidal rating ([10]; rate 0.0158 kg/ha): 9.0
- CHEAL herbicidal rating ([10]; rate 0.0315 kg/ha): 9.0
- CHEAL herbicidal rating ([10]; rate 0.0630 kg/ha): 9.0
- Preemergence herbicidal rating GALAP ([11]; rate 0.0156 kg/ha): 0.0
- Preemergence herbicidal rating GALAP ([11]; rate 0.0313 kg/ha): 0.0
- Preemergence herbicidal rating GALAP ([11]; rate 0.0625 kg/ha): 0.0
- Preemergence herbicidal rating GALAP ([11]; rate 0.1250 kg/ha): 3.0
- Preemergence herbicidal rating GALAP ([11]; rate 0.2500 kg/ha): 2.0
- ABUTH herbicidal rating ([12]; rate 0.0158 kg/ha): 7.0
- ABUTH herbicidal rating ([12]; rate 0.0315 kg/ha): 9.0
- ABUTH herbicidal rating ([12]; rate 0.0630 kg/ha): 9.0
- SETVI herbicidal rating ([13]; rate 0.0158 kg/ha): 1.0
- SETVI herbicidal rating ([13]; rate 0.0315 kg/ha): 1.0
- SETVI herbicidal rating ([13]; rate 0.0630 kg/ha): 1.0
- CYPIR herbicidal effect rating ([14]; 0.0313 kg/ha): 5.0
- CYPIR herbicidal effect rating ([14]; 0.0625 kg/ha): 5.0
- CYPIR herbicidal effect rating ([14]; 0.1250 kg/ha): 6.0
- CYPIR herbicidal effect rating ([14]; 0.2500 kg/ha): 9.0

SMILES: COC(=O)CCN1C(=O)CSC1=Nc1cc(-n2c(=O)cc(C(F)(F)F)n(C)c2=O)c(F)cc1Cl [Compound 28, Methyl 2-{{2-chloro-5-[3,6-dihydro-3-methyl-2,6-dioxo-4-(trifluoromethyl)-1(2H)-pyrimidinyl]-4-fluorophenyl}imino}-4-oxo-3-thiazolidinepropionate]
- Postemergence herbicidal rating ZEAMX ([1]; Rate 0.0158 kg/ha): 7.5
- Postemergence herbicidal rating ZEAMX ([1]; Rate 0.0315 kg/ha): 7.5
- Postemergence herbicidal rating ZEAMX ([1]; Rate 0.0630 kg/ha): 9.0
- Preemergence herbicidal rating AMBEL ([2]; rate 0.0625 kg/ha): 0.0
- Preemergence herbicidal rating AMBEL ([2]; rate 0.1250 kg/ha): 0.0
- Preemergence herbicidal rating AMBEL ([2]; rate 0.2500 kg/ha): 7.0
- Postemergence herbicidal rating ORYSAT ([3]; Rate 0.0158 kg/ha): 2.5
- Postemergence herbicidal rating ORYSAT ([3]; Rate 0.0315 kg/ha): 3.5
- Postemergence herbicidal rating ORYSAT ([3]; Rate 0.0630 kg/ha): 6.0
- Preemergence herbicidal rating SETVI ([4]; rate 0.0625 kg/ha): 7.0
- Preemergence herbicidal rating SETVI ([4]; rate 0.1250 kg/ha): 9.0
- Preemergence herbicidal rating SETVI ([4]; rate 0.2500 kg/ha): 9.0
- Herbicidal rating SAGPY [5, 19]: 0.0
- Herbicidal rating SAGPY [5, 20]: 0.0
- Herbicidal rating SAGPY [5, 21]: 0.0
- Herbicidal rating SAGPY [5, 22]: 0.0
- Postemergence herbicidal rating TRZAWR ([6]; Rate 0.0158 kg/ha): 5.0
- Postemergence herbicidal rating TRZAWR ([6]; Rate 0.0315 kg/ha): 5.0
- Postemergence herbicidal rating TRZAWR ([6]; Rate 0.0630 kg/ha): 6.5
- Herbicidal rating ECHORC [7, 19]: 0.0
- Herbicidal rating ECHORC [7, 20]: 4.0
- Herbicidal rating ECHORC [7, 21]: 7.0
- Herbicidal rating ECHORC [7, 22]: 9.0
- Postemergence herbicidal rating GLXMAW ([8]; Rate 0.0158 kg/ha): 6.5
- Postemergence herbicidal rating GLXMAW ([8]; Rate 0.0315 kg/ha): 8.0
- Postemergence herbicidal rating GLXMAW ([8]; Rate 0.0630 kg/ha): 8.5
- Herbicidal rating CYPSE [9, 19]: 0.0
- Herbicidal rating CYPSE [9, 20]: 0.0
- Herbicidal rating CYPSE [9, 21]: 0.0
- Herbicidal rating CYPSE [9, 22]: 0.0
- Postemergence herbicidal rating CHEAL ([10]; Rate 0.0158 kg/ha): 2.0
- Postemergence herbicidal rating CHEAL ([10]; Rate 0.0315 kg/ha): 4.0
- Postemergence herbicidal rating CHEAL ([10]; Rate 0.0630 kg/ha): 4.0
- Preemergence herbicidal rating GALAP ([11]; rate 0.0625 kg/ha): 0.0
- Preemergence herbicidal rating GALAP ([11]; rate 0.1250 kg/ha): 0.0
- Preemergence herbicidal rating GALAP ([11]; rate 0.2500 kg/ha): 9.0
- Postemergence herbicidal rating ABUTH ([12]; Rate 0.0158 kg/ha): 9.0
- Postemergence herbicidal rating ABUTH ([12]; Rate 0.0315 kg/ha): 9.0
- Postemergence herbicidal rating ABUTH ([12]; Rate 0.0630 kg/ha): 9.0
- Postemergence herbicidal rating SETVI ([13]; Rate 0.0158 kg/ha): 0.0
- Postemergence herbicidal rating SETVI ([13]; Rate 0.0315 kg/ha): 9.0
- Postemergence herbicidal rating SETVI ([13]; Rate 0.0630 kg/ha): 9.0
- Herbicidal rating CYPIR ([14]; 0.0313 kg/ha): 9.0
- Herbicidal rating CYPIR ([14]; 0.0625 kg/ha): 9.0
- Herbicidal rating CYPIR ([14]; 0.1250 kg/ha): 9.0
- Herbicidal rating CYPIR ([14]; 0.2500 kg/ha): 9.0
